{"source": "patent US7879843B2", "about": "“Benzothiazin-3-one compound and intermediate therefor” (Dainippon Sumitomo Pharma Co., Ltd., priority 2004, dated 2011)", "key": {"[1]": {"test_system": "rat partial-meniscectomy models", "assay": "Pharmacological test on rat partial-meniscectomy models", "assay_type": "in vivo", "conditions": "50 mg/kg, orally six times per week for 3 weeks, SD (IGS) male rats", "description": "SD (IGS) male rats aged 6 weeks (purchased from Charles River Japan Inc.) were used. The hair on the knee joint portion of right hind leg of each rat was shaved with a hair clipper under etherisation, and then the skin on the joint side of the lateral collateral ligament was incised along the ligament. Subsequently, the fascia was incised and the lateral collateral ligament was resected in a length of about 3 mm. Thereafter, the medial meniscus was exposed and the matters adhering to the meniscus were removed. The meniscus was picked up with tweezers and a part of the meniscus was cut off along the tweezers with microscissors. The fascia and the skin were sutured. One week after the above treatment, the administration of each test compound was started. The volume of the test compound administered was 10 ml/kg (solvent: 0.5% methyl cellulose) and the test compound was orally administered six times per week for 3 weeks. After the body weight was measured, the shinbone of the right hind leg was collected and fixed in 10% neutral buffered formalin. […] The average of scores for rats in each group was calculated and the degree of chondrodegeneration of a pathosis control group was taken as 100%. The chondrodegeneration inhibition rate of each compound was calculated by the following equation: Inhibition rate=1−(average score value of drug-treated group/score value of control group)×100"}, "[2]": {"biological_target": "T1, human MMP-13 (Homo sapiens, UniProt P45452)", "T1 construct": "made in house; host or cells: COS-1 cells (pcDNA I vector), culture supernatant", "assay": "Inhibitory activity against MMP-13 (fluorogenic MCA substrate)", "assay_type": "biochemical", "conditions": "activated human MMP-13, 37° C. for 12 hours", "description": "As MMP-13, there was used one which had been prepared by genetic engineering (using a well-known human chondrocyte cDNA library as a template, cDNA fragments were amplified by PCR by the use of primers 5′-[…]-3′ (SEQ ID NO: 1) and 5′-[…]-3′ (SEQ ID NO: 2) and each of the cDNA fragments amplified was inserted in a vector pcDNA I, and the vector was introduced into COS-1 cells derived from Afurikamidorizaru kidney, followed by culture and the recovery of the supernatant of a culture medium) on the basis of the well-known genetic base sequence of human MMP-13 (J. Biol. Chem., 269 (24), 16766-16773 (1994)) and had been activated by maintaining the thus prepared MMP-13 at 37° C. for 2 hours in the presence of 1 mM mercury 4-aminophenylacetate.\nInhibitory activity against human MMP-13 was measured according to the method of C. G. Knight et al. (FEBS Lett., 296 (3), 263-266 (1992)).\nThat is, 45 μl of assay buffer (0.1M Tris-hydrochloric acid, 0.1M sodium chloride, 0.01M calcium chloride, 0.05% Brigy 35, pH=7.5) was placed in a 96-well micro-titer plate for fluorometry, and 5 μl of a solution of a test compound in dimethyl sulfoxide was added thereto. […] After the micro-titer plate was maintained at 37° C. for 12 hours to carry out the reaction, fluorescence was measured with the fluorescence plate reader to measure the residual enzyme activity."}}, "note": "Structures can show the parent of a compound that is named as a salt."}
{"smiles": "CCOC(=O)c1ccc2c(c1)N(CC(=O)NO)C(=O)[C@H](CCCc1ccc(OC)cc1)S2", "note": "(as salt: TFA) [Example 7, (−)-Ethyl 4-[2-(hydroxyamino)-2-oxoethyl]-2-[3-(4-methoxyphenyl)propyl]-3-oxo-3,4-dihydro-2H-1,4-benzothiazine-6-carboxylate]", "values": [{"measurement": "melting point", "result": "143.5 to 144.5", "unit": "°C"}]}
{"smiles": "CCOC(=O)c1ccc2c(c1)N(CC(=O)NO)C(=O)[C@H](CCCc1ccc(OC)cc1)S2", "note": "[Example 7, (−)-Ethyl 4-[2-(hydroxyamino)-2-oxoethyl]-2-[3-(4-methoxyphenyl)propyl]-3-oxo-3,4-dihydro-2H-1,4-benzothiazine-6-carboxylate]", "values": [{"measurement": "chondrodegeneration inhibition rate", "setting": "[1]", "result": 52, "unit": "%"}]}
{"smiles": "COc1ccc(CCC[C@@H]2Sc3ccc(C(=O)O)cc3N(CC(=O)NO)C2=O)cc1", "note": "[Example 14, (−)-4-[2-(Hydroxyamino)-2-oxoethyl]-2-[3-(4-methoxyphenyl)propyl]-3-oxo-3,4-dihydro-2H-1,4-benzothiazine-6-carboxylic acid]", "values": [{"measurement": "IC50", "setting": "[2]", "result": 44, "unit": "nM"}]}
